Data on two compounds can be found in US20220096529A1, “2-HYDROXYPROPYL-BETA-CYCLODEXTRIN (HPBETACD) FOR USE IN THE TREATMENT OF BREAST CANCER” (UNIVERSITY OF THE WITWATERSRAND, JOHANNESBURG, priority 2019, published 2022).

As a reminder, the inhibition is the change of the read-out against control, counted positive when it falls. Read a high inhibition as a response far below the control.

What all share (format): cell-based, human
Test [1] has as its system MDA-MB-231 cells. The test is described as follows: Mitochondrial outer membrane potential assay (MOMP). The settings on record: MDA-MB-231, 10 mM, 24 hrs. As for the experimental part: (§1) One of the key hallmarks of apoptosis is the loss of mitochondrial membrane potential. To investigate that aspect we did a MOMP assay which validates our Cell-APOPercentage assay. This assay was tested on three cell lines MCF7, MDA-MB-231 & MRC-5. The top right and bottom hand quadrants of each plot represents healthy (FL2-A) and apoptotic (FL1-A) cells respectively (see FIGS. 13 to 15).
(§2) From the results obtained from MTT (IC50 values) and Cell-APOPercentage assays it was quite evident that ˜10 mM HPβCD caused cellular growth inhibition through apoptosis in cancer cells and had little or no effect in normal cells. Therefore, we selected just 10 mM HPβCD going forward as the only working concentration for HPβCD treatment. 24 hrs time point was selected (HPβCD & 10 mM H2O2) because mitochondrial membrane potential loss is an early cellular event.

The subject of test [2] is MCF7 cells. The description is as above. The settings on record: MCF7, 10 mM, 24 hrs. Here is the method: as §1, §2
The subject of test [3] is MDA-MB-231 cells. As to the kind of experiment: ROS assay. The settings on record: MDA-MB-231, 10 mM, 24 hrs. Here is the method: (§3) To further validate the occurrence of apoptosis and to investigate the exact mechanisms if apoptosis, a ROS assay was conducted to capture the production of ROS. […] In order to be in solidarity with this fact, a ROS assay was performed in three cell lines: MCF7, MDA-MB-231 & MRC-5. Like before, HPβCD and the positive (10 mM H2O2) were treated for 24 hrs. The right hand section in each plot represents the production of ROS.

Another test concerns MRC-5 cells. The test is described as follows: ROS assay. The settings on record: MRC-5, 10 mM, 24 hrs. Here is the method: as §3
Test [4] concerns MCF7 cells. As to the kind of experiment: ROS assay. The settings on record: MCF7, 10 mM, 24 hrs. As for the experimental part:
as §3

The subject of test [5] is MDA-MB-231 cells. The test is described as follows: Caspase 3/7 assay. The settings on record: MDA-MB-231, 40 μM Plumbagin, 24 hrs. Here is the method:
(§4) The final step in apoptosis following the intrinsic pathway is the activation of executioner caspases like caspase 3 and caspase 7 […]. Therefore, to confirm that cell death was due to the mitochondrial mediated pathway of apoptosis a Caspase 3/7 assay was conducted. Caspases are activated in response to a myriad of cellular death stimuli and they dismantle the cell. Caspase 3 and caspase 7 contribute to the majority of proteolytic cleavage occurring in apoptosis. As a final step to confirm and validate apoptosis via the mitochondrial intrinsic pathway, the Caspase 3/7 assay was conducted on three cell lines: MCF7, MDA-MB-231 & HEK-293. HPβCD and positive (40 μM PL) were treated for 24 hrs. The percentage of dead/apoptotic cells are clearly indicated in specific corners of each quadrants in the above plots.

Test [6] deals with MCF7 cells. As to the kind of experiment: Caspase 3/7 assay. The following applies: MCF7, 40 μM Plumbagin, 24 hrs. Here is the method:
as §4

The subject of another test is HEK-293 cells. The test is described as follows: Caspase 3/7 assay. The settings on record: HEK-293, 40 μM Plumbagin, 24 hrs. As for the experimental part: as §4
For test [7], the system named is MDA-MB-231 cells. The test is described as follows: MTT growth inhibition assay. The settings on record: Homo sapiens, MDA-MB-231, 40 μM Plumbagin. As for the experimental part:
(§5) Cells were cultured in appropriate medium supplemented with 10% FCS, penicillin (100 U/ml), and streptomycin (100 μg/ml) (Gibco) at 5% CO2 in a 37° C. incubator.
(§6) Four different cell lines were used MCF7 (ER+). MDA-MB-231 (ER−), MRC-5 (Lung Fibroblasts) and HEK-293 (Embryonic kidney). MRC-5 and/or HEK-293 were used as control cell lines depending on availability.
(§7) In order to determine whether HPβCD has the ability to induce cancer cell death a primary screening using an MTT assay was performed. Three different time points 24 hrs.
For orientation: Tetrazolium dyes change colour on reduction, which living cells bring about.

The subject of test [8] is MCF7 cells. The test is described as follows: MTT growth inhibition assay. The following applies: Homo sapiens, MCF7, 40 μM Plumbagin. Here is the method:
as §5, §6, §7

Test [9] relates to MDA-MB-231 cells. As to the kind of experiment: Cell-APOPercentage apoptosis assay. The following applies: MDA-MB-231, 10 μM Plumbagin, 24 hrs. As for the experimental part: (§8) APOPercentage assays gives a measure of overall apoptosis in the cell. Apoptosis is an early event and therefore just one time point (24 hrs) was selected and tested on four cell lines MCF7, MDA-MB-231, MRC-5 & HEK-293 cells. 10 μM Plumbagin was used a positive control as opposed to 40 μM from MTT because higher concentrations of plumbagin was way too toxic for the cells and to capture the early activity, optimal dosage was required. To confirm the growth inhibition obtained from the MTT assay was actually due to apoptosis, a Cell-APOPercentage Apoptosis assay was performed according to known methods.

The test system of test [10] is MCF7 cells. The test is described as follows: Cell-APOPercentage apoptosis assay. The following applies: MCF7, 10 μM Plumbagin, 24 hrs. As for the experimental part: as §8

For `OO` [H2O2, reference compound], the “apoptotic cells / cell death (loss of mitochondrial membrane potential)” value with MDA-MB-231 cells [1] was determined as 92.4%. Also, in the test with MCF7 cells [2], the “apoptotic population (loss of mitochondrial membrane potential)” value turned out to be 92.1%. In addition, the values for the ROS generation with MDA-MB-231 cells [3], with MRC-5 cells and with MCF7 cells [4] were 73%, 64.1% and 88.5%, respectively.
As for `CC1=CC(=O)c2c(O)cccc2C1=O` [Plumbagin, reference compound], the “Total Apoptotic (caspase 3/7)” value in the test on MDA-MB-231 cells [5] is given as 80.45%; with MCF7 cells [6], 23.55%; in the test with HEK-293 cells it was 72.40%; in the test with HEK-293 cells (listed as PL), 72.4%. Besides, the inhibition at 40 µM with MDA-MB-231 cells [7] (24 hrs) was around 85%; in the test on MDA-MB-231 cells [7] (48 hrs), around 92%; in the test on MDA-MB-231 cells [7] (72 hrs), around 95%; in the test on MCF7 cells [8] (24 hrs), around 80%; in the test on MCF7 cells [8] (48 hrs) it was around 90%; in the test on MCF7 cells [8] (72 hrs), around 100%. Moreover, the apoptosis in the test on MDA-MB-231 cells [9] and with MCF7 cells [10] was around 90% in each case.
